Experiments:
Format in all cases: cell-based
[1] = test system: RPMI-8402 cells (human T cell acute lymphoblastic leukemia cells); assay: Proliferation assay (alamarBlue) with RPMI-8402 cells
Source text: (§1) The antiproliferative activities of compounds falling under formula (Ia), (Tb) and (Ic), respectively, were investigated on cells or cell lines originating from a disorder of the haematopoietic system, including the myeloid cell compartment and the lymphoid cell compartment (T-cells and B-cells), the neuroendocrine system, the cervix, the breast, the ovaries, the lung, the gastrointestinal tract, and the mucosal epithelium, as well as from the skin epithelium and from the muscle. To this end, HL-60 cells, NB-4 cells, HH cells, RPMI-8402 cells, TANOUE cells, TT cells, HeLa cells, MDA-MB-231 cells, FU-OV-1 cells, LOU-NH91 cells, 23132/87 cells, CAL-27 cells, BHY cells, SCC-25 cells, A-431 cells, human primary epidermal keratinocytes (HPEK), and C2C12 cells were seeded into 96-well plates suitable for fluorescence assays (CORNING #3598) at following initial cell numbers: 1000 cells per well for HL-60; 1000 cells per well for NB-4; 5000 cells per well for HH; 5000 cells per well for RPMI-8402; 1500 cells per well for TANOUE; 9000 cells per well for TT; 2000 cells per well for HeLa; 3000 cells per well for MDA-MB-231; 3000 cells per well for FU-OV-1; 4000 cells per well for LOU-NH91; 2000 cells per well for 23132/87; 2000 cells per well for CAL-27; 1500 cells per well for BHY; 1500 cells per well for SCC-25; 700 cells per well for A-431; 1000 cells per well for HPEK; 500 cells per well for C2-C12. The cells were treated with compounds at indicated final concentrations (diluted from the 1000× stock-solutions in DMSO to a final DMSO concentration of 0.1% v/v in H2O (Water For Injection, WFI, Fisherscientific #10378939)) or with the empty carrier DMSO at 0.1% v/v as control for 5 days. At day 5 after starting the treatments the cells were subjected to the alamarBlue® Proliferation Assay (Bio-Rad Serotec GmbH, BUF012B) according to the protocol of the manufacturer. The readout was taken with a multi-well plate-reader in the fluorescence mode with applying a filter for excitation at 560 nm (band width 10 nm) and for emission at 590 nm (band width 10 nm). Control treatments for growth inhibition with commercial compounds such as Methotrexate (MTREX) and Resveratrol (RES) were included on every plate. Some of the test compounds of the present invention were obtained and applied as their salts. According cases are indicated in the column “Specification” in Table 30 to Table 62 and by their sum formula in Table 63.
(§2) The assays were performed in duplicate or more replicates of independent single experiments each containing a six-fold replicate for every condition. For every individual plate, the measured fluorescence intensity values of the conditions with compound treatment were normalized against the corresponding equally weighted arithmetic mean of the fluorescence intensity values of the six DMSO treated control wells in order to obtain the relative values to a baseline level of 1.0.
(§3) Two independent outlier analyses were performed according to the methods by Peirce and Chauvenet (Ross, Journal of Engineering Technology 2003, 1-12). Outliers confirmed by at least one of the methods were excluded from the calculations but not more than one value out of six per compound within a single experiment. The weighted arithmetic mean (here abbreviated as AVEw) for each compound was calculated from the normalized values over all independent replicates of the single experiments comprising the six replicates each. The corresponding standard deviation for the weighted arithmetic mean was calculated according to the method described by Bronstein et al. (Bronstein, Semendjajew, Musiol, Muhlig, Taschenbuch der Mathematik, 5th edition 2001 (German), publisher: Verlag Harri Deutsch, Frankfurt am Main and Thun) and was combined with the Gauβ′ error propagation associated with the performed calculation for the normalization. The resulting standard deviation is herein referred to as “combined standard deviation”. […]

[2] = test system: TANOUE cells (human B cell leukemia cells); assay: Proliferation assay (alamarBlue) with TANOUE cells
Source text: as §1, §2, §3

[3] = test system: LOU-NH91 cells (human lung squamous cell carcinoma cells); assay: Proliferation assay (alamarBlue) with LOU-NH91 cells
Source text: The antiproliferative activities of compounds falling under formula (Ia), (Tb) and (Ic), respectively, were investigated on cells or cell lines originating from a disorder of the haematopoietic system, including the myeloid cell compartment and the lymphoid cell compartment (T-cells and B-cells), the neuroendocrine system, the cervix, the breast, the ovaries, the lung, the gastrointestinal tract, and the mucosal epithelium, as well as from the skin epithelium and from the muscle. To this end, HL-60 cells, NB-4 cells, HH cells, RPMI-8402 cells, TANOUE cells, TT cells, HeLa cells, MDA-MB-231 cells, FU-OV-1 cells, LOU-NH91 cells, 23132/87 cells, CAL-27 cells, BHY cells, SCC-25 cells, A-431 cells, human primary epidermal keratinocytes (HPEK), and C2C12 cells were seeded into 96-well plates suitable for fluorescence assays (CORNING #3598) at following initial cell numbers: 1000 cells per well for HL-60; 1000 cells per well for NB-4; 5000 cells per well for HH; 5000 cells per well for RPMI-8402; 1500 cells per well for TANOUE; 9000 cells per well for TT; 2000 cells per well for HeLa; 3000 cells per well for MDA-MB-231; 3000 cells per well for FU-OV-1; 4000 cells per well for LOU-NH91; 2000 cells per well for 23132/87; 2000 cells per well for CAL-27; 1500 cells per well for BHY; 1500 cells per well for SCC-25; 700 cells per well for A-431; 1000 cells per well for HPEK; 500 cells per well for C2-C12. […] The readout was taken with a multi-well plate-reader in the fluorescence mode with applying a filter for excitation at 560 nm (band width 10 nm) and for emission at 590 nm (band width 10 nm). […]
as §2, with “1.0. […]” for “1.0.”

[4] = test system: BHY cells (human oral squamous cell carcinoma cells); assay: Proliferation assay (alamarBlue) with BHY cells; conditions: read-out: Activity Range: weighted arithmetic mean (AVEw) of normalized fluorescence intensity relative to DMSO basis level 1.0
Source text: as §1, §2, §3

## Oc1ccc(C=Cc2cc(O)cc(O)c2)cc1 [RES, resveratrol, reference compound]
[1]; 20 μM
  Activity Range: weighted arithmetic mean (AVEw) of normalized fluorescence intensity relative to DMSO basis level 1.0: 0.6 ± 0.0
[1]; Homo sapiens, read-out: Activity Range: weighted arithmetic mean (AVEw) of normalized fluorescence intensity relative to DMSO basis level 1.0
  activity at 20 µM: 60%
[2]; 20 μM
  Activity Range: weighted arithmetic mean (AVEw) of normalized fluorescence intensity relative to DMSO basis level 1.0: 0.1 ± 0.0
[2]; Homo sapiens, B-cell, read-out: Activity Range: weighted arithmetic mean (AVEw) of normalized fluorescence intensity relative to DMSO basis level 1.0
  activity at 20 µM: 10%
[3]; 20 μM
  Activity Range: weighted arithmetic mean (AVEw) of normalized fluorescence intensity relative to DMSO basis level 1.0: 0.9 ± 0.1
[3]; control at 40 μM
  Activity Range: weighted arithmetic mean (AVEw) of normalized fluorescence intensity relative to DMSO basis level 1.0: 0.7 ± 0.0
[4]
  activity at 20 µM: 50 ± 10%

— patent US20240140895A1, “NOVEL AROMATIC MOLECULES” (XENIOPRO GmbH, priority 2018, published 2024)
